Columns and labels:
[1] = test system: pGBM cell lines (SF188 and KNS42); test: Cell count of pGBM cell lines with and without IAA94; assay type: cell-based, human; settings: 100 uM IAA94, FIG. 3
Description: (§1) The cell count in different cell lines (SF188 and KNS42) with and without IAA94.
(§2) Similar efficacy was observed when using TTFields as a treatment for pGBM (FIG. 4).

pGBM = test: Invasion / migration capacity of pGBM with IAA94; assay type: cell-based, human; settings: FIG. 3
Description: as §1, §2

GCE62, SF188 and KNS42 = test: Cell proliferation of three cell lines treated with TTFields and IAA94; assay type: cell-based, human; settings: TTFields and IAA94 compared to TTFields alone, FIG. 6
[2] = test system: human glioblastoma primary culture; test: Cell number after TTFields plus CLIC1 inhibitor IAA94; assay type: cell-based; settings: TTFields plus IAA94 vs TTFields alone or IAA94 alone, FIG. 12
Description: Thus, the combination therapy is a very effective treatment.

CC1(C2CCCC2)Cc2cc(OCC(=O)O)c(Cl)c(Cl)c2C1=O (centres unmarked) [IAA94]
overall cell count [1]: reduces overall cell count
invasive capacity (pGBM; 100 uM IAA94, pGBM): reduces invasive capacity
capacity of pGBM to proliferate, invade and migrate (pGBM; inhibition of CLIC1 and CLIC4 by IAA94): reduced the capacity of pGBM to proliferate, invade and migrate
cell proliferation, combination with TTFields (GCE62, SF188 and KNS42): significantly reduced cell proliferation compared to TTFields alone
cell number, combination with TTFields [2]: inhibits cell proliferation and/or kills more cells that TTFields alone or IAA94 alone

Reference: US20230381503A1, “Compositions And Methods For Treating With A Combination Of Alternating Electric Fields And Ion Channel Inhibitors” (NOVOCURE GMBH, priority 2022, published 2023)
